Results on four substances are retold here after publication PMC9227323, “The Potential of Cell-Penetrating Peptides for mRNA Delivery to Cancer Cells” (Pharmaceutics, 2022).

Several values for one entry are separate records, joined by “and”; a condition that tells them apart may be missing. Equal values may be shown once. Ends that are not written are not given here.

Data set [1] relates to CT26.CL25 cells. Nature of the data set: Cellular uptake of fluorescein-labeled mRNA, flow cytometry. It is filed as cell-based, mouse. The note with it: CT26.CL25, 3 μg (6.8 nM) fluorescein-labeled mCherry mRNA with CPP or Lipofectamine 3000, serum-free media, 3 h, n = 3. As for the experimental part:
For the cellular uptake test, mCherry mRNA was labeled with fluorescein dye using the Label IT nucleic acid labeling kit (MIR 3200) (Mirus Bio, Madison, WI, USA). CT26.CL25 cells plated on a 35 mm glass bottom dish were incubated in 1.5 mL of serum-free media for 2 h. […] After treatment, CT26.CL25 cells were collected with PBS and FITC-positive cells were measured by a CytoFLEX flow cytometer (Beckman Coulter, Palo Alto, CA, USA) using FlowJo v10 software.
On the technique in general: In flow cytometry, cells or beads pass a laser one at a time.

Data set [2] has as its system CT26.CL25 cells. The experiment in a line: mCherry protein expression, fluorescence microscopy. It is filed as cell-based, mouse. Particulars: CT26.CL25, CPP/mCherry mRNA 6.8 nM, 24 h after treatment, n = 3. How it is done: (§1) To measure expression efficiency, cells seeded on a 35 mm glass bottom dish were incubated in 1.5 mL of serum-free media for 2 h. After incubation, mCherry mRNA with Lipofectamine 3000 or CPPs were treated for 3 h, washed, and incubated in complete medium for an additional 21 h. The expression of mCherry protein was visualized with a fluorescence microscope (EVOS M7000, ThermoFisher). The expression efficiency was calculated by counting the number of cells expressing fluorescence in the total number of cells. For quantification of expression efficiency, flow cytometry analyses were examined after 24 h treatment with CPP/EGFP mRNA. CT26.CL25 cells were collected with PBS and EGFP-expressing cells were measured by a CytoFLEX flow cytometer (Beckman Coulter) using FlowJo v10 software.

Data set [3] concerns CT26.CL25 cells. The experiment in a line: EGFP expression, flow cytometry. The note with it: CT26.CL25, EGFP mRNA 6.8 nM, 24 h, right plot of Figure 6B (amphipathic CPPs). Type of data set: cell-based, mouse. As for the experimental part:
as §1

Data set [4] in a line: Size and zeta-potential of CPP/mRNA complexes by DLS. It is filed as physicochemical. The note with it: for Particle Size / PDI / Zeta Potential: CPP/mRNA complex at the N/P ratio of Table 2; for Particle Size / PDI: DLS; for Particle Size / Zeta Potential: Zetasizer Nano ZS; for Particle Size: 50 μg CPP in 1 mL distilled water; for PDI / Zeta Potential: distilled water; for N/P Ratio (lowest N/P ratio to form the nanocomplexes): CPP/mRNA complex, amine groups of peptide to phosphate groups of mRNA.
Method: The size and zeta-potential of CPP/mRNA complexes were measured by dynamic light scattering (DLS) using Zetasizer Nano ZS (Malvern Instruments, Malvern, UK); 50 μg of CPPs mixed with an optimized amount of mRNA were diluted in 1 mL of distilled water and then transferred to a cuvette.

For the next data set, the system named is mCherry mRNA. The experiment in a line: Gel shift assay, complexation capacity of CPP with mRNA. Type of data set: physicochemical. Particulars: 350 ng mCherry mRNA, n = 3. As for the experimental part: The mRNA was diluted in RNase-free water at 100 ng/μL and incubated with CPPs (1 μg/μL in RNase-free water) at room temperature (RT) for 1 h at 200 rpm. For in vitro studies, CPP/mRNA complexes were diluted with 1× PBS by adding 10× PBS after complexation. To visualize the complexation of mRNA and CPP, 350 ng of mCherry mRNA was mixed with increasing amounts of CPP and a gel shift assay was performed using a 1% agarose gel. Complexation capacity was measured based on mRNA band intensities by Image J. Complexation capacity (%) = 100 − ((Band intensity of mRNA)/(Band intensity of initial mRNA) × 100))
A general note: A gel shift assay detects complexes by their altered migration in electrophoresis.

As for “Stearyl-RRRRRRRR [STR-Arg8, Stearyl-poly-Arginine8, amphipathic CPP, stearyl moiety introduced into Arg8]”, the “FITC-positive cells (cellular uptake)” value in the data set on CT26.CL25 cells [1] was 87.3% and > 85%. Further, the mCherry-positive cells in the data set with CT26.CL25 cells [2] came to 4.9%. For the same substance, the EGFP-expressing cells with CT26.CL25 cells [3] worked out at 14.6%. Besides, in data set [4], the “Particle Size” value was 156.8 (±4.7) nm, the PDI amounted to 0.28, the “Zeta Potential” value is “+28.6 (±0.3) mV” and the “N/P Ratio (lowest N/P ratio to form the nanocomplexes)” value (from here on “N/P Ratio”) turned out to be 7.8.

As for “VSRRRRRRGGRRRR [LMWP, low molecular weight protamine, cationic cell-penetrating peptide, synthesized by Peptron]”, the “FITC-positive cells (cellular uptake)” value in the data set on CT26.CL25 cells [1] was found to be 24.1%. Also, in data set [4], the “Particle Size” value was 129.5 (±0.3) nm, the PDI stood at 0.22, the “Zeta Potential” value is “+22.5 (±0.0) mV” and the “N/P Ratio” value was determined as 1.9.

Consider Penetratin, for which the “FITC-positive cells (cellular uptake)” value in the data set on CT26.CL25 cells [1] was found to be 28.7%. In the data set on CT26.CL25 cells [2], the mCherry-positive cells result is “incapable of protein expression”.

On to “WEARLARALARALARHLARALARALRACEA [amphipathic cell-penetrating peptide, synthesized by Peptron]”, for which the “FITC-positive cells (cellular uptake)” value with CT26.CL25 cells [1] is 99.9% and > 85%. For the same substance, the “amount of CPP at which complete complexes formed” value with mCherry mRNA was 1.0 nmol. The mCherry-positive cells with CT26.CL25 cells [2] is listed as 28.9%. In the data set with CT26.CL25 cells [3], this substance showed an EGFP-expressing cells of 29.5%. In addition, in data set [4], the “Particle Size” value was 174.6 (±3.7) nm, the PDI is given as 0.23, the “Zeta Potential” value is listed as “+20.2 (±1.7) mV” and the “N/P Ratio” value amounted to 9.7.
